Test [1] has as its target human C5aR (Homo sapiens (Human), UniProt P21730). Description: FLIPR assay: inhibition of C5a-mediated calcium mobilization. The class given is cell-based. The conditions noted are these: stable cell line over expressing human C5aR & Gα15, human C5a at EC50 (0.1-0.25 nM). In outline: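 Stable cell line overexpressing human C5aR with Gα15, measured on FLIPR Tetra. Cells loaded 1 h at 37° C with calcium 5 dye and 2.5 mM probenecid in HBSS/20 mM HEPES/0.1% BSA. Compounds preincubated 30 minutes at room temperature in 1% DMSO before C5a.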

Test [2] concerns CD11b. Description: Human whole blood CD11b up-regulation assay. Type of test: cell-based. The conditions noted are these: 2 nM human C5a, CD15+ granulocytes, read-out: hCD11b IC50. The procedure:
Whole blood was collected in sodium heparin tubes and the assay started within 2 hours of the blood draw. The blood was incubated with compounds in 1% DMSO (dimethyl sulfoxide) at room temperature for 10 minutes with gentle rocking. 2 nM of human C5a was then added for 15 minutes at room temperature with gentle rocking. Following the C5a incubation period cells were washed once with cold FACS (fluorescence-activated cell sorting) buffer (phosphate buffered saline+0.5% bovine serum albumin) FITC (fluorescein isothiocyanate) mouse anti-human CD15 and PE-Cy5 (phycoerythrin-cyanine 5) mouse anti-human CD11b antibodies (Becton Dickinson) were gently mixed with the cells and allowed to incubate for 30 minutes on ice protected from the light. Cells were then washed three times with cold FACS buffer. Red blood cells (RBC) were lysed by incubating with BD FACS lysis buffer (Becton Dickinson) for 10 minutes at room temperature. Cells were pelleted and the lysing procedure was repeated until all RBCs were lysed. The remaining leukocytes were resuspended in BD lysis buffer. Samples were acquired on the LSR^11 flow cytometer and 10,000 events of the CD15+ granulocyte population were collected. The CD11b median fluorescence intensity of the CD 15+ cell population was evaluated using FACSDiva software (Becton Dickinson).

The IC50 is the midpoint of a concentration-inhibition curve.

Read-outs that look alike come from different tables or passages of the source.

human C5aR, sequence (P21730 whole entry): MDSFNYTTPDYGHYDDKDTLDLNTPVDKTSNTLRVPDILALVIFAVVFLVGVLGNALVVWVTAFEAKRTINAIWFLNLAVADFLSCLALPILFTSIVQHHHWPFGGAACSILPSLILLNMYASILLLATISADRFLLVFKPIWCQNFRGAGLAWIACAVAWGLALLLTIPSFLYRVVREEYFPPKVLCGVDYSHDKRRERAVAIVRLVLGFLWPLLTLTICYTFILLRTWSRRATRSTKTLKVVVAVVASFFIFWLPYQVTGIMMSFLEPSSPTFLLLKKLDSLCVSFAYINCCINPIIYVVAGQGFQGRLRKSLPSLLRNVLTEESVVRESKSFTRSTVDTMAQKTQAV

For `Cc1ccc(C(C)C)cc1N1CCc2nc(-c3c(C)ccc4[nH]nc(C)c34)nc(OCC(F)F)c2C1` [Example 63-E, 4-(2,2-difluoroethoxy)-2-(3,5-dimethyl-1H-indazol-4-yl)-6-(5-isopropyl-2-methylphenyl)-5,6,7,8-tetrahydropyrido[4,3-d]pyrimidine], the IC50 in test [1] came to 23 nM; in test [2] (Homo sapiens), 29 nM.
Taken in the same sequence, the figures for `[2H]C1([2H])c2c(C)cc(-c3cccc4[nH]cc(C)c34)nc2CCN1c1c(C)nn(CC)c1C` [Example 47-B, 6-(1-Ethyl-3,5-dimethyl-1H-pyrazol-4-yl)-4-methyl-2-(3-methyl-1H-indol-4-yl)-5,6,7,8-tetrahydro(5,5-^2H2)-1,6-naphthyridine] were 56 nM and 1420 nM.
Taken in the same sequence, the figures for `CO[C@@H]1CCN(c2nc(-c3c(C)cccc3C)nc3c2CN(c2cc(C4CC4)nn2C)CC3)[C@H](C)C1` [Example 23-D, 6-(3-cyclopropyl-1-methyl-1H-pyrazol-5-yl)-2-(2,6-dimethylphenyl)-4-((2R,4R)-4-methoxy-2-methylpiperidin-1-yl)-5,6,7,8-tetrahydropyrido[4,3-d]pyrimidine] were 8 nM and 18 nM.
The matching figures for `CO[C@@H]1CCN(c2nc(-c3c(C)ccc4[nH]nc(C)c34)nc3c2CN(c2cc(C4CC4)nn2C)CC3)CC1(C)C` [Example 23-I, (R)-6-(3-cyclopropyl-1-methyl-1H-pyrazol-5-yl)-2-(3,5-dimethyl-1H-indazol-4-yl)-4-(4-methoxy-3,3-dimethylpiperidin-1-yl)-5,6,7,8-tetrahydropyrido[4,3-d]pyrimidine]: 0.5 nM and 22 nM.
`CO[C@@H]1CCN(c2nc(-c3c(C)cccc3C)nc3c2CN(c2cc(Cl)ccc2C)CC3)[C@H](C)C1` [Example 21-P, 6-(5-chloro-2-methylphenyl)-2-(2,6-dimethylphenyl)-4-((2R,4R)-4-methoxy-2-methylpiperidin-1-yl)-5,6,7,8-tetrahydropyrido[4,3-d]pyrimidine]: the IC50 in test [1] stood at 7 nM; in test [2] (Homo sapiens), 26 nM.
The matching figures for `CCn1nc(C2CC2)c(F)c1N1CCc2nc(-c3c(C)ccc4[nH]nc(C)c34)nc(N3CC[C@@H](OC)C(C)(C)C3)c2C1` [Example 71-B, (R)-6-(3-Cyclopropyl-1-ethyl-4-fluoro-1H-pyrazol-5-yl)-2-(3,5-dimethyl-1H-indazol-4-yl)-4-(4-methoxy-3,3-dimethylpiperidin-1-yl)-5,6,7,8-tetrahydropyrido[4,3-d]pyrimidine]: 2 nM and 10 nM.
The matching figures for `Cc1ccc(C(C)C)cc1N1CCc2nc(-c3c(C)ccc4[nH]nc(C)c34)nc(OCCN3CCOCC3)c2C1` [Example 63-I, 4-(2-((2-(3,5-dimethyl-1H-indazol-4-yl)-6-(5-isopropyl-2-methylphenyl)-5,6,7,8-tetrahydropyrido[4,3-d]pyrimidin-4-yl)oxy)ethyl)morpholine]: 32 nM and 60 nM.
The matching figures for `Cc1ccccc1N1CCc2nc(-c3c(C)cccc3C)nc(N(C)C)c2C1` [Example 17-T, 2-(2,6-dimethylphenyl)-N,N-dimethyl-6-(o-tolyl)-5,6,7,8-tetrahydropyrido[4,3-d]pyrimidin-4-amine]: 54 nM and 451 nM.
Consider `COc1ccc(C)c(N2CCc3nc(-c4c(C(C)C)ccc5[nH]ncc45)nc(N4CC[C@H](OC)C(C)(C)C4)c3C2)c1` [Example 19-AE, (S)-2-(5-isopropyl-1H-indazol-4-yl)-6-(5-methoxy-2-methylphenyl)-4-(4-methoxy-3,3-dimethylpiperidin-1-yl)-5,6,7,8-tetrahydropyrido[4,3-d]pyrimidine], for which the figures for the IC50 in test [1] and in test [2] (Homo sapiens) were 4 nM and 22 nM, respectively.
Turning to `Cc1ccc(C(C)C)cc1N1CCc2nc(-c3c(C(C)C)ccc4[nH]ncc34)cc(C)c2C1` [Example 41-G, 2-(5-isopropyl-1H-indazol-4-yl)-6-(5-isopropyl-2-methylphenyl)-4-methyl-5,6,7,8-tetrahydro-1,6-naphthyridine], the IC50 amounted to 3 nM in test [1] and 70 nM in test [2] (Homo sapiens).
Take `CCn1nc(C2CC2)c(Cl)c1N1CCc2nc(-c3c(C)ccc4[nH]nc(C)c34)nc(N3CC(N(C)C)C3)c2C1` [Example 70-K, 1-(6-(4-chloro-3-cyclopropyl-1-ethyl-1H-pyrazol-5-yl)-2-(3,5-dimethyl-1H-indazol-4-yl)-5,6,7,8-tetrahydropyrido[4,3-d]pyrimidin-4-yl)-N,N-dimethylazetidin-3-amine]: the IC50 in test [1] came to 20 nM; in test [2] (Homo sapiens), 37 nM.
Take `Cc1ccc(C(C)C)cc1N1CCc2nc(-c3cccc4[nH]cc(C)c34)cc(C)c2C1` [Example 40-D, 6-(5-Isopropyl-2-methylphenyl)-4-methyl-2-(3-methyl-1H-indol-4-yl)-5,6,7,8-tetrahydro-1,6-naphthyridine]: the IC50 in test [1] is 132 nM; in test [2] it was 264 nM.
With `Cc1ccc(C(C)C)cc1N1CCc2nc(-c3c(C)ccc4[nH]nc(C)c34)nc(N3CCOC[C@H]3C)c2C1` [Example 65-K, (R)-4-(2-(3,5-dimethyl-1H-indazol-4-yl)-6-(5-isopropyl-2-methylphenyl)-5,6,7,8-tetrahydropyrido[4,3-d]pyrimidin-4-yl)-3-methylmorpholine], the values for the IC50 in test [1] and in test [2] (Homo sapiens) were 2 nM and 26 nM, respectively.
The matching figures for `CCOC1CN(c2nc(-c3c(C)ccc4[nH]nc(C)c34)nc3c2CN(c2c(Cl)c(C4CC4)nn2C)CC3)C1` [Example 68-B, 6-(4-Chloro-3-cyclopropyl-1-methyl-1H-pyrazol-5-yl)-2-(3,5-dimethyl-1H-indazol-4-yl)-4-(3-ethoxyazetidin-1-yl)-5,6,7,8-tetrahydropyrido[4,3-d]pyrimidine]: 2 nM and 17 nM.
As for `CO[C@@H]1CN(c2nc(-c3c(C)ccc4[nH]nc(C)c34)nc3c2CN(c2c(Cl)c(C4CC4)nn2C)CC3)[C@H]1C` (racemic) [Example 69-I, 6-(4-chloro-3-cyclopropyl-1-methyl-1H-pyrazol-5-yl)-2-(3,5-dimethyl-1H-indazol-4-yl)-4-((trans)-methoxy-2-methylazetidin-1-yl)-5,6,7,8-tetrahydropyrido[4,3-d]pyrimidine], the IC50 was found to be 4 nM in test [1] and 25 nM in test [2] (Homo sapiens).
`[2H]C1([2H])c2c(C)cc(-c3cccc4[nH]cc(C)c34)nc2CCN1c1cc(C(C)C)ccc1C` [Example 40-S]: the IC50 in test [1] was found to be 78 nM; in test [2] (Homo sapiens) it was 793 nM.
The matching figures for `CO[C@H]1CCN(c2nc(-c3cccc4[nH]cc(C)c34)nc3c2CN(c2cc(C(C)C)ccc2C)CC3)C[C@@H]1C` [Example 17-AY, 6-(5-isopropyl-2-methylphenyl)-4-((3S,4S)-4-methoxy-3-methylpiperidin-1-yl)-2-(3-methyl-1H-indol-4-yl)-5,6,7,8-tetrahydropyrido[4,3-d]pyrimidine]: 9 nM and 45 nM.
With `CO[C@@H]1CCN(c2nc(-c3c(C)ccc4[nH]nc(C)c34)nc3c2CN(c2c(Cl)c(C4CC4)nn2C)CC3)[C@H](C)C1` [Example 55-M, 6-(4-chloro-3-cyclopropyl-1-methyl-1H-pyrazol-5-yl)-2-(3,5-dimethyl-1H-indazol-4-yl)-4-((2R,4R)-4-methoxy-2-methylpiperidin-1-yl)-5,6,7,8-tetrahydropyrido[4,3-d]pyrimidine], the results for the IC50 in test [1] and in test [2] (Homo sapiens) were 1 nM and 15 nM, respectively.
Taken in the same sequence, the figures for `CO[C@@H]1CCN(c2nc(-c3c(C)cccc3C)nc3c2CN(c2cc(C(C)C)nn2C)CC3)[C@H](C)C1` [Example 23-C, 2-(2,6-dimethylphenyl)-6-(3-isopropyl-1-methyl-1H-pyrazol-5-yl)-4-((2R,4R)-4-methoxy-2-methylpiperidin-1-yl)-5,6,7,8-tetrahydropyrido[4,3-d]pyrimidine] were 40 nM and 95 nM.
Taken in the same sequence, the figures for `Cc1ccc(C(C)C)cc1N1CCc2nc(-c3cccc4[nH]cc(C)c34)nc(N3CCN(S(C)(=O)=O)[C@H](C)C3)c2C1` [Example 29, (R)-6-(5-isopropyl-2-methylphenyl)-2-(3-methyl-1H-indol-4-yl)-4-(3-methyl-4-(methylsulfonyl)piperazin-1-yl)-5,6,7,8-tetrahydropyrido[4,3-d]pyrimidine] were 2 nM and 300 nM.
The matching figures for `COC1CCN(c2nc(-c3cccc4[nH]cc(C)c34)nc3c2CN(c2cc(C(C)C)ccc2C)CC3)[C@H](C)C1` (stereo in doubt) [Example 17-R, 6-(5-isopropyl-2-methylphenyl)-4-((2R,4S)-4-methoxy-2-methylpiperidin-1-yl)-2-(3-methyl-1H-indol-4-yl)-5,6,7,8-tetrahydropyrido[4,3-d]pyrimidine]: 10 nM and 42 nM.

The values are drawn from patent US8846656B2, “Tetrahydropyrido-pyridine and tetrahydropyrido-pyrimidine compounds and use thereof as C5a receptor modulators” (Novartis AG, priority 2011, dated 2014).
